Laboratory results: patent US20040214848A1, “Inhibitors of ABC drug transporters in microbial cells” (priority 2001, published 2004)
Where two headings read alike, the source gives them in different places.

Key:
[1] = target: human PGP membranes (PGP-ATPase) (Homo sapiens, UniProt P08183)
Description: The DMSO concentration (1.0%) was constant for all conditions within the experiment.
The test substances were incubated in the PGP membranes and supplemented with MgATP, with and without sodium orthovanadate present. Orthovanadate inhibits PGP by trapping MgADP in the nucleotide binding site. Thus, the ATPase activity measured in the presence of orthovanadate represents non-PGP ATPase activity and was subtracted from the activity generated without orthovanadate to yield vanadate-sensitive ATPase activity.
(§1) ATPase assays were conducted in 96-well microtiter plates. A 0.06 mL reaction mixture containing 40 μg PGP membranes, test substance, and 4 mM MgATP, in buffer containing 50 mM Tris-MES, 2 mM EGTA, 50 mM KCl, 2 mM dithiothreitol, and 5 mM sodium azide, plus organic solvent was incubated at 37° C. for 20 minutes. […] Identical reaction mixtures containing 100 μM sodium orthovanadate were assayed in parallel. The reactions were stopped by the addition of 30 μl of 10% SDS+Antifoam A. The incubations were followed with addition of 200 μl of 35 mM Ammonium Molybdate in 15 mM Zinc Acetate:10% Ascorbic Acid (1:4) and incubated for an additional 20 minutes at 37° C. Additionally, 0.06 mL aliquots of potassium phosphate standards prepared in the buffer described above, were incubated in the plates containing the test and control substances, with SDS and detection reagent added. The liberation of inorganic phosphate was detected by its absorbance at 800 nm and quantitated by comparing the absorbance to a phosphate standard curve. The concentration dependence of the PGP was analyzed for evidence of saturation of PGP-ATPase activity, and apparent kinetic parameters were calculated by non-linear regression.
as §1, with “plates.” for “plates. A 0.06 mL reaction mixture containing 40 μg PGP membranes, test substance, and 4 mM MgATP, in buffer containing 50 mM Tris-MES, 2 mM EGTA, 50 mM KCl, 2 mM dithiothreitol, and 5 mM sodium azide, plus organic solvent was incubated at 37° C. for 20 minutes.”, “PGP-associated ATPase” for “PGP-ATPase”
as §1, with “The effect of tobramycin on PGP-associated ATPase activity was also assayed. The tobramycin was incubated in human PGP membranes (BD Biosciences, Franklin Lakes, N.J., Gentest Cat. K228) and supplemented with MGATP, with and without sodium orthovanadate present. ATPase” for “ATPase”, “tobramycin,” for “test substance,”, “solvent (1% DMSO)” for “solvent”, “curve.” for “curve. The concentration dependence of the PGP was analyzed for evidence of saturation of PGP-ATPase activity, and apparent kinetic parameters were calculated by non-linear regression.”

human PGP [2] = target: T1, human PGP (Homo sapiens, UniProt P08183)
human PGP [3] = target: T1, human PGP; assay: Inhibition of PGP-mediated [3H]-digoxin transport in human PGP-expressing LLC-PK1 (15B-J) cell monolayers; conditions: for Concentrations at which inhibitory behavior was exhibited: pH 7.2
[4] = system: Plasmodium falciparum strains; conditions: more rapidly; cited from earlier work
[5] = system: CLA (control) Monolayer, LLC-PK1 cells; conditions: pig, 120 min, 10 µM, pH 7.2

T1 sequence (P08183 whole entry): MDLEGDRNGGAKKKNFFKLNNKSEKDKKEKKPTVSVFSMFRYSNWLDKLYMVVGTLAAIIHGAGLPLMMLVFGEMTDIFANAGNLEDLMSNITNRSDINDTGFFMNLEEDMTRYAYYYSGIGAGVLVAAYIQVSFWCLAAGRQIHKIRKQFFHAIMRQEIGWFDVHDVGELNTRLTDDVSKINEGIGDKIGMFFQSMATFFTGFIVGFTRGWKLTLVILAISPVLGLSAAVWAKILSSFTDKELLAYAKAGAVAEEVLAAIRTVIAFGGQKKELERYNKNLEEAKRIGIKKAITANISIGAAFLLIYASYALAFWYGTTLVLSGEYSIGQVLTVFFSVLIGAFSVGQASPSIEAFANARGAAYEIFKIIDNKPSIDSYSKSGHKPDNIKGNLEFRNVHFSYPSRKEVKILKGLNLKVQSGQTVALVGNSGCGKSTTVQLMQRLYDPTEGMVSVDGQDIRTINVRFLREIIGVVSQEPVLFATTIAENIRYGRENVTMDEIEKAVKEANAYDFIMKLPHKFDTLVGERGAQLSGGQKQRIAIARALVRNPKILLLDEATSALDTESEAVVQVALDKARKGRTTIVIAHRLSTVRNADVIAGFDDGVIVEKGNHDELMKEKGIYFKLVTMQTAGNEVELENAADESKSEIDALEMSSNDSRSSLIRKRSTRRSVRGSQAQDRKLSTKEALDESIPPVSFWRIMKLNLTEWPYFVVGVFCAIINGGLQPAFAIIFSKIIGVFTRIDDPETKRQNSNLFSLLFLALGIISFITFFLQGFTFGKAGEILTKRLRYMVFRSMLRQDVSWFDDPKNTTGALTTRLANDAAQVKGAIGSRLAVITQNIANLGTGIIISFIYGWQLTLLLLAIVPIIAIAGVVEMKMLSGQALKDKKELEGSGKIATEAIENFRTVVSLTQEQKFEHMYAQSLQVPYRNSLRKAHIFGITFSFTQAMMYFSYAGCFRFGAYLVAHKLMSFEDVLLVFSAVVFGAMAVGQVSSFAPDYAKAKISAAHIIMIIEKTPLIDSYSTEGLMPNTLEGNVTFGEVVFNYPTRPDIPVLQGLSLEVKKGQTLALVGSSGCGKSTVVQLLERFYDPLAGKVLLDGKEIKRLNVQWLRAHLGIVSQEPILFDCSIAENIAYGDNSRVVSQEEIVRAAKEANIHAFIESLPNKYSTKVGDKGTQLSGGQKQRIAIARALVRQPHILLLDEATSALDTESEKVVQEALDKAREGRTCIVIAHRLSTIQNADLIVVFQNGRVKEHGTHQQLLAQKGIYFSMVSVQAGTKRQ
Sequence of human PGP membranes (PGP-ATPase) (P08183 whole entry): as above

O=C1CC[C@@]2(O)[C@H]3Cc4ccc(O)c5c4[C@@]2(CCN3CC2CC2)[C@H]1O5 [Naltrexone, naltrexone]
ATPase Activity ([1]; 0.003 μM test substance): -0.3 nmol/mg/min
ATPase Activity ([1]; 0.01 μM test substance): 0.0 nmol/mg/min
ATPase Activity ([1]; 0.03 μM test substance): -1.6 nmol/mg/min
ATPase Activity ([1]; 0.1 μM test substance): -0.7 nmol/mg/min
ATPase Activity ([1]; 0.3 μM test substance): -1.4 nmol/mg/min
ATPase Activity ([1]; 1.0 μM test substance): -0.8 nmol/mg/min
ATPase Activity ([1]; 3.0 μM test substance): 2.1 nmol/mg/min
ATPase Activity ([1]; 10 μM test substance): 2.0 nmol/mg/min
ATPase Activity ([1]; 30 μM test substance): -2.0 nmol/mg/min
ATPase Activity ([1]; 100 μM test substance): 4.6 nmol/mg/min

Oc1ccc2c3c1O[C@H]1[C@H](O)CC[C@@]4(O)[C@@H](C2)N(CC2CC2)CC[C@]314 [6-β-Naltrexol, 6-β-naltrexol]
Concentration dependence of inhibition of digoxin transport (result in words) (human PGP [2]): did not appear to be concentration-dependent
Inhibition of digoxin efflux, mean (human PGP [3]; concentration range of 0.0001 to 30 μM): 8.5 +/−7.1%
Inhibition of PGP-mediated digoxin transport (result in words) (human PGP [3]; ketoconazole at 25 μM, test substance over the concentration range tested): inhibitor of PGP-mediated digoxin transport

NC[C@H]1O[C@H](O[C@H]2[C@H](O)[C@@H](O[C@H]3O[C@H](CO)[C@@H](O)[C@H](N)[C@H]3O)[C@H](N)C[C@@H]2N)[C@H](N)C[C@@H]1O [Tobramycin, tobramycin]
Effect on PGP-associated ATPase activity (result in words) [1]: stimulate PGP-associated ATPase activity
ATPase Activity ([1]; human, 20 min, 0.1 μM): -1.6 nmol/mg/min
ATPase Activity ([1]; human, 20 min, 0.2 µM): -2.6 nmol/mg/min
ATPase Activity ([1]; human, 20 min, 0.4 µM): -2.6 nmol/mg/min
ATPase Activity ([1]; human, 20 min, 0.8 µM): -3.3 nmol/mg/min
ATPase Activity ([1]; human, 20 min, 3.13 µM): -2.6 nmol/mg/min
ATPase Activity ([1]; human, 20 min, 6.25 µM): -1.4 nmol/mg/min
ATPase Activity ([1]; human, 20 min, 12.5 µM): -1.0 nmol/mg/min
ATPase Activity ([1]; human, 20 min, 25 µM): 0.2 nmol/mg/min
ATPase Activity ([1]; human, 20 min, 50 µM): 0.3 nmol/mg/min
ATPase Activity ([1]; human, 20 min, 100 μM): 1.5 nmol/mg/min

CCN(CC)CCCC(C)Nc1ccnc2cc(Cl)ccc12 (stereo not drawn) [chloroquine]
Efflux of the drug, chloroquine-resistant versus chloroquine-sensitive strains [4]: 40-50 times

C=CCN1CC[C@]23c4c5ccc(O)c4O[C@H]2C(=O)CC[C@@]3(O)[C@H]1C5 [Naloxone, naloxone]
Effect on PGP-associated ATPase activity (result in words) ([1]; semi-quantitative assay): not to limit the ATPase activity
Concentration dependence of inhibition of digoxin transport (result in words) (human PGP [3]): not concentration-dependent
Concentrations at which inhibitory behavior was exhibited (human PGP [3]; human): 100 to 100000 nM

CC[C@H]1OC(=O)[C@H](C)[C@@H](O[C@H]2C[C@@](C)(OC)[C@@H](O)[C@H](C)O2)[C@H](C)[C@@H](O[C@@H]2O[C@H](C)C[C@H](N(C)C)[C@H]2O)[C@](C)(O)C[C@@H](C)C(=O)[C@H](C)[C@@H](O)[C@]1(C)O [Erythromycin, erythromycin]
Effect on PGP-associated ATPase activity (result in words) [1]: stimulate PGP-associated ATPase activity
ATPase Activity ([1]; human, 20 min, 0.1 μM): 1.1 nmol/mg/min
ATPase Activity ([1]; human, 20 min, 0.2 µM): 2.0 nmol/mg/min
ATPase Activity ([1]; human, 20 min, 0.4 µM): 0.8 nmol/mg/min
ATPase Activity ([1]; human, 20 min, 0.8 µM): 0.1 nmol/mg/min
ATPase Activity ([1]; human, 20 min, 3.13 µM): 0.5 nmol/mg/min
ATPase Activity ([1]; human, 20 min, 6.25 µM): 0.6 nmol/mg/min
ATPase Activity ([1]; human, 20 min, 12.5 µM): 2.8 nmol/mg/min
ATPase Activity ([1]; human, 20 min, 25 µM): 8.2 nmol/mg/min
ATPase Activity ([1]; human, 20 min, 50 µM): 14.0 nmol/mg/min
ATPase Activity ([1]; human, 20 min, 100 μM): 15.6 nmol/mg/min
pmoles in Receiver [5]: 6.3 pmol

C=C1CC[C@@]2(O)[C@H]3Cc4ccc(O)c5c4[C@@]2(CCN3CC2CC2)[C@H]1O5 [Nalmefene, nalmefene]
Effect on PGP-associated ATPase activity (result in words) ([1]; semi-quantitative assay): not to limit the ATPase activity
Concentration dependence of inhibition of digoxin transport (result in words) (human PGP [3]): increasingly inhibited in response to increasing concentration
Efflux ratio B→A/A→B, Hi Affinity/Low Cap (human PGP [3]; human, LLC-PK1, pH 7.2): 4.2 (3.0)
Efflux ratio B→A/A→B, Low Affinity/Hi Cap (human PGP [3]; human, LLC-PK1, pH 7.2): 2.6 (1.9)
Concentrations at which inhibitory behavior was exhibited (human PGP [3]; human): 100 to 100000 nM
